{"source": "paper PMC11649115", "about": "“In vitro safety evaluation of dopamine D3R antagonist, R-VK4-116, as a potential medication for the treatment of opioid use disorder” (PLOS ONE, 2024)", "key": {"HepG2 cells": {"test_system": "HepG2 cells", "test": "Mitochondrial toxicity (MT) assay panel", "type": "cell-based", "details": "HepG2, 100 µM", "method": "The assay results were presented as % cell viability. […] After each incubation, the cells were harvested and lysed to test the MT assay panel. The Zalcitabine (positive control) was also included in this assay (Fig 3 in S1 File). The levels of Mitochondrial Oxidative Phosphorylation (OXPHOS) complex 1 (NADH dehydrogenase; ab178011, lot #GR 3339973–1), complex 3 (CytC reductase; ab124537, lot #GR3276896-3), complex 4 (CytC Oxidase; ab179880, lot #GR3273194-1), and complex 5 (ATP synthase; ab124539, lot #GR3267780-4) in the cell lysates were determined using respective indirect ELISA as per manufacturer’s instructions. The total ATP content of the cell lysates was determined using an ATP assay kit (ab83355, lot #GR3314128-2, Abcam, Cambridge, MA). The Caspase 3 content of the cell lysates was determined using the Caspase-3 assay kit (ab39401, lot #GR3322733-1, Abcam, Cambridge, MA). In addition, the total glutathione content was determined using the total glutathione (GSSG/GSH) assay kit (STA-312, lot #09100263, Oxiselect™, San Diego, CA). Using an Oxiselect™ ROS/RNS assay kit (STA-347, lot #7081343, Cell Biolabs Inc. San Diego, CA), the ROS/RNS content of the cell lysates was determined by fluorescence assay."}, "BCRP": {"biological_target": "T1, BCRP (Homo sapiens, UniProt Q9UNQ0)", "T1 construct": "expressed in transfected cells; host or cells: MDCK-II cells", "T1 sequence (Q9UNQ0 1-655)": "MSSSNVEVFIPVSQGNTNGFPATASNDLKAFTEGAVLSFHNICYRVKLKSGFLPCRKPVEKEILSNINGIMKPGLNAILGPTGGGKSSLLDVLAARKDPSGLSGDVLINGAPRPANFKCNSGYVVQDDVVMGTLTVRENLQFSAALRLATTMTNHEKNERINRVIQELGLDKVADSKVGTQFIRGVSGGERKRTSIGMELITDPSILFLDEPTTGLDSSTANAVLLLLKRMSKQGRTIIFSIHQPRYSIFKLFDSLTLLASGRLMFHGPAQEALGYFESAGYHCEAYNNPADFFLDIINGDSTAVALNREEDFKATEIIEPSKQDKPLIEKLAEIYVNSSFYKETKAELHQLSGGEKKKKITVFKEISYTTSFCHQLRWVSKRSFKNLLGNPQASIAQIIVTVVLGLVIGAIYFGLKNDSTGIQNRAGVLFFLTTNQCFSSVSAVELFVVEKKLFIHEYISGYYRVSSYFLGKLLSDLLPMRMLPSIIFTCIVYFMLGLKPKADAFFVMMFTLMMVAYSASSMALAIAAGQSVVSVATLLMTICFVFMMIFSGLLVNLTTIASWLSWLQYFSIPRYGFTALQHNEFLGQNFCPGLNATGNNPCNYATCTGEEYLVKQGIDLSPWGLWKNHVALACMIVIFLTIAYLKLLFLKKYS", "test": "Transporter mediated assay (substrate/inhibitor), MDCK-II cells", "type": "in vitro ADME", "details": "BCRP, substrate test, 2 µM", "description": "(§1) The MDCK-II cells were treated to express the transporter of interest.\n(§2) For BCRP and P-gp, the apparent permeability Papp and Efflux Ratio (ER) were calculated [16]. Net basal (B) to apical (A) flux (B → A) of the substrate transport (pmol/min/cm^2) by BCRP or P-gp was calculated by subtracting A → B flux from B → A flux."}, "P-gp": {"biological_target": "T2, P-gp (Homo sapiens, UniProt P08183)", "T2 construct": "expressed in transfected cells; host or cells: MDCK-II cells", "T2 sequence (P08183 whole entry)": "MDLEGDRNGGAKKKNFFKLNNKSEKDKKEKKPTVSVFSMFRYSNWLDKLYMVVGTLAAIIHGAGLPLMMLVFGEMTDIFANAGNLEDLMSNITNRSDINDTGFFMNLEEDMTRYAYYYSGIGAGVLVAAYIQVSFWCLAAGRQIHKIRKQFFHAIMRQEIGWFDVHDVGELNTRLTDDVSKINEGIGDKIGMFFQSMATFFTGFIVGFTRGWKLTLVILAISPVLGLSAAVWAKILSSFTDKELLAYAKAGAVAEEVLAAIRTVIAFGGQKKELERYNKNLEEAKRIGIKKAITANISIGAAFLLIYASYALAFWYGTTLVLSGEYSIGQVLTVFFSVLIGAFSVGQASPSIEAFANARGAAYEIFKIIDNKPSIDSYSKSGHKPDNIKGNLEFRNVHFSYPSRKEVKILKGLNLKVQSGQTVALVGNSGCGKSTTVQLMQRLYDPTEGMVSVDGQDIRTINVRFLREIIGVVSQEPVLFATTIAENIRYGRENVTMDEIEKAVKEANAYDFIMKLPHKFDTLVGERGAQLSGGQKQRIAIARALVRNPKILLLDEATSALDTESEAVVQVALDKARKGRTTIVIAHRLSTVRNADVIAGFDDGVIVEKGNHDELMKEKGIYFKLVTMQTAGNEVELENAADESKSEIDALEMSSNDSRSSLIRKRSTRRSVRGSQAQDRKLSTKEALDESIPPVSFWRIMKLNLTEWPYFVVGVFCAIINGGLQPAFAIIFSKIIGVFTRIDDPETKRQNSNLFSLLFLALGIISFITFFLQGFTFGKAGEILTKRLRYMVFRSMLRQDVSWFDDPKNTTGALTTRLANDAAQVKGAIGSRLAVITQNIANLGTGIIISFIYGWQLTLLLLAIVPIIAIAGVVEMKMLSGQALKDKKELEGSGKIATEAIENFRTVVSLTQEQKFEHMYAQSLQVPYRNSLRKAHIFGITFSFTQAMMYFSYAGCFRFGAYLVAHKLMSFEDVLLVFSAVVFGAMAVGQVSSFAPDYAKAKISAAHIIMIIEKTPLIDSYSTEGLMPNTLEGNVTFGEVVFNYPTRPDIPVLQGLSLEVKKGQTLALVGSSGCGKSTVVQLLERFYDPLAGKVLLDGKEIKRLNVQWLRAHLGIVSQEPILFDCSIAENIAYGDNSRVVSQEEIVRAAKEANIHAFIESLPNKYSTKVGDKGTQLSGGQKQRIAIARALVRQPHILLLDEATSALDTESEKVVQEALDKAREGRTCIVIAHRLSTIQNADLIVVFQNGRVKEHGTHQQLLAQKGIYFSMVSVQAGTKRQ", "test": "Transporter mediated assay (substrate/inhibitor), MDCK-II cells", "type": "in vitro ADME", "details": "human, probe quinidine 0.1 μM", "description": "as §1, §2"}, "[1]": {"test": "Metabolic stability in liver microsomes", "details": "for % remaining: monkey liver microsomes, 10 μM"}, "[2]": {"test": "Metabolic stability in hepatocyte", "details": "human, hepatocytes", "description": "(§3) CYP3A4 substrate Midazolam (10 μM) was prepared and incubated in the same manner. […] In addition, in vitro half-life (t1/2, min) and intrinsic clearance (CLint, μl/min/10^6 cells) were calculated [10, 11]."}, "human hepatocytes": {"test_system": "human hepatocytes", "test": "Metabolic stability in hepatocyte", "details": "human hepatocytes, 10 μM", "description": "as §3"}, "[3]": {"test": "Metabolic stability in hepatocyte", "details": "Beagle, dog, hepatocytes", "description": "as §3"}, "dog hepatocytes": {"test_system": "dog hepatocytes", "test": "Metabolic stability in hepatocyte", "details": "dog hepatocytes, 10 μM", "description": "as §3"}, "[4]": {"test": "Stability in the absence of hepatocytes", "details": "no hepatocytes, 10 μM", "description": "as §3"}, "[5]": {"test": "Metabolic stability in hepatocyte", "details": "Sprague Dawley, rat, hepatocytes", "description": "as §3"}, "rat hepatocytes": {"test_system": "rat hepatocytes", "test": "Metabolic stability in hepatocyte", "details": "rat hepatocytes, 10 μM", "description": "as §3"}, "[6]": {"test": "Metabolic stability in liver microsomes"}, "[7]": {"test": "Metabolic stability in liver microsomes", "remark": "listed apart in the source"}, "[8]": {"test": "Metabolic stability in liver microsomes", "details": "for % remaining: dog liver microsomes, 10 μM"}}}
{"smiles": "Nc1ccn([C@H]2CC[C@@H](CO)O2)c(=O)n1", "note": "[zalcitabine]", "values": [{"measurement": "OXPHOS 5 and total ATP levels, caspase 3 or ROS/RNS levels", "setting": "HepG2 cells; 2-week", "value": "No significant decrease"}, {"measurement": "decrease in OXPHOS 1", "setting": "HepG2 cells; 2-week", "value": "~ 80%"}, {"measurement": "decrease in OXPHOS 3", "setting": "HepG2 cells; 2-week", "value": "~ 20%"}, {"measurement": "decrease in OXPHOS 4", "setting": "HepG2 cells; 2-week", "value": "~ 70%"}, {"measurement": "increase in total glutathione content", "setting": "HepG2 cells; two weeks", "value": "~ 35%"}]}
{"smiles": "COc1cc2nc(N3CCN(C(=O)c4ccco4)CC3)nc(N)c2cc1OC", "note": "[prazosin, reference compound]", "values": [{"measurement": "Papp A→B at 2 µM", "setting": "BCRP", "value": "8.06 ± 0.76", "unit": "×10⁻⁶ cm/s"}, {"measurement": "Papp B→A at 2 µM", "setting": "BCRP", "value": "47.7 ± 2.77", "unit": "×10⁻⁶ cm/s"}]}
{"smiles": "COc1cc2c(cc1OC)CN(CCc1ccc(NC(=O)c3cccc4c(=O)c5cccc(OC)c5[nH]c34)cc1)CC2", "note": "[elacridar]", "values": [{"measurement": "inhibition at 3 μM", "setting": "P-gp", "value": "98.4 ± 0.53", "unit": "%"}]}
{"smiles": "Cc1ncc2n1-c1ccc(Cl)cc1C(c1ccccc1F)=NC2", "note": "[Midazolam, reference compound]", "values": [{"measurement": "% remaining", "setting": "[1]; 60 min", "value": 0.0, "unit": "%"}, {"measurement": "% remaining", "setting": "[1]; 90 min", "value": 0.0, "unit": "%"}, {"measurement": "% remaining", "setting": "[1]; 120 min", "value": 0.0, "unit": "%"}, {"measurement": "remaining at 0 h, 10 μM", "setting": "[1]; monkey, microsomes, pH 7.4", "value": 100, "unit": "%"}, {"measurement": "remaining at 0.5 h, 10 μM", "setting": "[1]; monkey, microsomes, pH 7.4", "value": 0.1, "unit": "%"}, {"measurement": "remaining at 2 h, 10 μM", "setting": "[1]; monkey, microsomes, pH 7.4", "value": 91.8, "unit": "%"}, {"measurement": "half-life at 10 μM", "setting": "[2]", "value": 4.45, "unit": "h"}, {"measurement": "hepatocyte CLint at 10 μM", "setting": "[2]", "value": 5.2, "unit": "µL/min/1e6 cells"}, {"measurement": "% remaining Vs T = 0 min", "setting": "human hepatocytes; 0 min", "value": 100.0, "unit": "%"}, {"measurement": "% remaining Vs T = 0 min", "setting": "human hepatocytes; 30 min", "value": 91.7, "unit": "%"}, {"measurement": "% remaining Vs T = 0 min", "setting": "human hepatocytes; 60 min", "value": 85.3, "unit": "%"}, {"measurement": "% remaining Vs T = 0 min", "setting": "human hepatocytes; 90 min", "value": 80.7, "unit": "%"}, {"measurement": "% remaining Vs T = 0 min", "setting": "human hepatocytes; 120 min", "value": 72.4, "unit": "%"}, {"measurement": "half-life at 10 μM", "setting": "[3]", "value": 0.855, "unit": "h"}, {"measurement": "hepatocyte CLint at 10 μM", "setting": "[3]", "value": 27, "unit": "µL/min/1e6 cells"}, {"measurement": "% remaining Vs T = 0 min", "setting": "dog hepatocytes; 0 min", "value": 100.0, "unit": "%"}, {"measurement": "% remaining Vs T = 0 min", "setting": "dog hepatocytes; 30 min", "value": 66.6, "unit": "%"}, {"measurement": "% remaining Vs T = 0 min", "setting": "dog hepatocytes; 60 min", "value": 50.8, "unit": "%"}, {"measurement": "% remaining Vs T = 0 min", "setting": "dog hepatocytes; 90 min", "value": 31.2, "unit": "%"}, {"measurement": "% remaining Vs T = 0 min", "setting": "dog hepatocytes; 120 min", "value": 19.5, "unit": "%"}, {"measurement": "% remaining Vs T = 0 min", "setting": "[4]; 0 min", "value": 100.0, "unit": "%"}, {"measurement": "% remaining Vs T = 0 min", "setting": "[4]; 30 min", "value": 97.7, "unit": "%"}, {"measurement": "% remaining Vs T = 0 min", "setting": "[4]; 60 min", "value": 97.6, "unit": "%"}, {"measurement": "% remaining Vs T = 0 min", "setting": "[4]; 90 min", "value": 98.6, "unit": "%"}, {"measurement": "% remaining Vs T = 0 min", "setting": "[4]; 120 min", "value": 98.5, "unit": "%"}, {"measurement": "half-life at 10 μM", "setting": "[5]", "value": 3.22, "unit": "h"}, {"measurement": "hepatocyte CLint at 10 μM", "setting": "[5]", "value": 7.2, "unit": "µL/min/1e6 cells"}, {"measurement": "% remaining Vs T = 0 min", "setting": "rat hepatocytes; 0 min", "value": 100.0, "unit": "%"}, {"measurement": "% remaining Vs T = 0 min", "setting": "rat hepatocytes; 30 min", "value": 89.0, "unit": "%"}, {"measurement": "% remaining Vs T = 0 min", "setting": "rat hepatocytes; 60 min", "value": 77.8, "unit": "%"}, {"measurement": "% remaining Vs T = 0 min", "setting": "rat hepatocytes; 90 min", "value": 70.5, "unit": "%"}, {"measurement": "% remaining Vs T = 0 min", "setting": "rat hepatocytes; 120 min", "value": 65.7, "unit": "%"}, {"measurement": "% remaining", "setting": "[6]; rat liver microsomes, 10 μM, 120 min", "value": 0.0, "unit": "%"}, {"measurement": "remaining at 0 h, 10 μM", "setting": "[6]; rat, microsomes, pH 7.4", "value": 100, "unit": "%"}, {"measurement": "remaining at 0.5 h, 10 μM", "setting": "[6]; rat, microsomes, pH 7.4", "value": 5.8, "unit": "%"}, {"measurement": "remaining at 1 h, 10 μM", "setting": "[6]; rat, microsomes, pH 7.4", "value": 0.4, "unit": "%"}, {"measurement": "remaining at 1.5 h, 10 μM", "setting": "[6]; rat, microsomes, pH 7.4", "value": 0.1, "unit": "%"}, {"measurement": "remaining at 2 h, 10 μM", "setting": "[6]; rat, microsomes, pH 7.4", "value": 102, "unit": "%"}, {"measurement": "% remaining", "setting": "[7]; human liver microsomes, 10 μM, 120 min", "value": 0.0, "unit": "%"}, {"measurement": "remaining at 0 h, 10 μM", "setting": "[7]; human, microsomes, pH 7.4", "value": 100, "unit": "%"}, {"measurement": "remaining at 0.5 h, 10 μM", "setting": "[7]; human, microsomes, pH 7.4", "value": 9.7, "unit": "%"}, {"measurement": "remaining at 1 h, 10 μM", "setting": "[7]; human, microsomes, pH 7.4", "value": 1, "unit": "%"}, {"measurement": "remaining at 1.5 h, 10 μM", "setting": "[7]; human, microsomes, pH 7.4", "value": 0.2, "unit": "%"}, {"measurement": "remaining at 2 h, 10 μM", "setting": "[7]; human, microsomes, pH 7.4", "value": 101, "unit": "%"}, {"measurement": "% remaining", "setting": "[8]; 90 min", "value": 0.0, "unit": "%"}, {"measurement": "% remaining", "setting": "[8]; 120 min", "value": 0.0, "unit": "%"}, {"measurement": "remaining at 0 h, 10 μM", "setting": "[8]; dog, microsomes, pH 7.4", "value": 100, "unit": "%"}, {"measurement": "remaining at 0.5 h, 10 μM", "setting": "[8]; dog, microsomes, pH 7.4", "value": 0.3, "unit": "%"}, {"measurement": "remaining at 1 h, 10 μM", "setting": "[8]; dog, microsomes, pH 7.4", "value": 0.1, "unit": "%"}, {"measurement": "remaining at 2 h, 10 μM", "setting": "[8]; dog, microsomes, pH 7.4", "value": 95.8, "unit": "%"}]}
